Assay [1] has as its system ERK or AKT pathways. To be noted: parental HEK 293 cells not expressing RET, increasing concentration.
In assay [2] the test system is RET-mediated activation of ERK. To be noted: increasing concentrations, HEK293 cells.
The test system of assay [3] is TT cells.
Assay [4] concerns the target T1, RET (Homo sapiens (Human), UniProt P07949). As to the kind of experiment: Protein based RET kinase assay with purified recombinant GST-RET. The format is biochemical.
Target sequence in this assay (P07949 29-1114): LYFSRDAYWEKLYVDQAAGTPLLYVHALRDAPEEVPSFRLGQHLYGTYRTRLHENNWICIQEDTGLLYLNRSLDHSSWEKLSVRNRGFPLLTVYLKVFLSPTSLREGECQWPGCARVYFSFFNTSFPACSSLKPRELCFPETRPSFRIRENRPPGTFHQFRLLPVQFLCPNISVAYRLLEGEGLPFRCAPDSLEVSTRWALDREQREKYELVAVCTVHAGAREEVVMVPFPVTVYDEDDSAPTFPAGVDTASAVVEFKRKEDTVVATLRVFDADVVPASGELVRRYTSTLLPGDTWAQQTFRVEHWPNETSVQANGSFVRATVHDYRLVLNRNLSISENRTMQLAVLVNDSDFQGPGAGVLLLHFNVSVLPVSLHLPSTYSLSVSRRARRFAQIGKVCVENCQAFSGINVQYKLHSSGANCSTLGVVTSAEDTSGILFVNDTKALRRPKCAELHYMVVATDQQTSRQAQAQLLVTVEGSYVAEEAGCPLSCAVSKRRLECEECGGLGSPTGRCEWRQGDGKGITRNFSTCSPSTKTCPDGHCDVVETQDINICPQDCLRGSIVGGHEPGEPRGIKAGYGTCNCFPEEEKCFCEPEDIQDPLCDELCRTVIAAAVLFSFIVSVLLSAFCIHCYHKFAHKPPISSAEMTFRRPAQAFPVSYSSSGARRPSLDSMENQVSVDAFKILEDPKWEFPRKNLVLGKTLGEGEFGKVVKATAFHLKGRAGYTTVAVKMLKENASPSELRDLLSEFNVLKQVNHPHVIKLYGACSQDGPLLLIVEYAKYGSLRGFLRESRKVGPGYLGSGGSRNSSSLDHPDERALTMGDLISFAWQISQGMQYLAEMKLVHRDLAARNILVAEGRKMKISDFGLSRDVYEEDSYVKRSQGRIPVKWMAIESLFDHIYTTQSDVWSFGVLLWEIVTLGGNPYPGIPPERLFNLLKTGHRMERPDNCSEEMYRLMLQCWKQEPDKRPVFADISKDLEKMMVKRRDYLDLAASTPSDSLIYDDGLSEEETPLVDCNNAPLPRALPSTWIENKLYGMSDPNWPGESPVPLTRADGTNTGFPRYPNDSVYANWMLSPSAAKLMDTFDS
Assay [5] has as its system MiaPaca-2.
Assay [6] has as its system BxPc3 tumours. To be noted: BxPc3 xenograft, nude mice, 50 mg/kg intraperitoneal every three days.
Assay [7] has as its system MiaPaca-2 tumours. As to the kind of experiment: Xenograft study, subcutaneous MiaPaca-2 tumours. The format is in vivo. To be noted: MiaPaca-2 xenograft, nude mice, intraperitoneal; SW-01 50 mg/kg, gemcitabine 120 mg/kg.
Assay [8] concerns the target T1, RET. As to the kind of experiment: RET autophosphorylation (pY905 Western blot) in HEK293 cells stably expressing RET. The format is cell-based. Background: A western blot detects proteins with antibodies after separation by electrophoresis.
Target sequence in this assay (P07949 29-1114 limits assumed): as the sequence (P07949 29-1114) above
Assay [9] has as its system HEK293 cells stably expressing RET.
For assay [10], the system named is MiaPaca-2 cells expressing RET. To be noted: MiaPaca-2, GDNF + SW-01 (5 μM) relative to GDNF alone.
Assay [11] addresses T1, RET. Also on record: key to the marks not given beside the values. To be noted: RET phosphorylation levels.
Target sequence in this assay (P07949 29-1114): as above
In assay [12] the test system is MiaPaca-2 cells. To be noted: presence of GDNF.
The target in assay [13] is RET V804M mutant (Homo sapiens (Human), UniProt P07949, V804M). To be noted: HEK293 cells, 2 h.
Sequence of RET V804M mutant (P07949 29-1114 V804M): as the sequence (P07949 29-1114) above, with V776M counted along it
Assay [14] has as its system TT cells. To be noted: 24 hours, 10× magnification.
Assay [15] concerns the target RET M918T mutant (Homo sapiens (Human), UniProt P07949, M918T). To be noted: HEK293 cells, 2 h.
The test system of assay [16] is NCIH69 cells.
In assay [17] the test system is MCF7 cells. To be noted: presence of GDNF.
The subject of assay [18] is RET-expressing HEK293 cells.
The test system of assay [19] is BxPc3.
Where [20] appears, read: purified protein assay, read-out: IC50.
[21] abbreviates: varying concentrations, 2 hours, HEK293 cells expressing RET.
Where [22] appears, read: cell based assay, read-out: EC50.

Where “and” joins values, the source holds several entries; their conditions need not be identical. Equal entries are not always repeated. Entries after “also recorded” stand apart in the source; their conditions may differ. Structures can show the parent of a compound that is named as a salt. Where two headings read alike, the source gives them in different places. Where only a bound is given, the exact number is not on record here.

Sequence of RET M918T mutant (P07949 29-1114 M918T): as the sequence (P07949 29-1114) above, with M890T counted along it

Take `CN(C)CCC=C1c2ccccc2C=Cc2ccccc21.Cl` [SW-01, Cyclobenzaprine Hydrochloride]: the “effect on ERK or AKT pathways” value in assay [1] is reported as “did not affect ERK or AKT pathways”. Besides, in assay [2], the “amount of pERK” value is on record as “significantly reduced”. For the same compound, the apoptosis result in assay [3] is recorded as “led to apoptosis”; in assay [12], “caused dose-dependent apoptosis”; in [16], “caused apoptosis in NCIH69 cells in a dose-dependent fashion”; in [17], “caused apoptosis in MCF7 cells in a dose-dependent fashion”. The IC50 in [4] (kinase assays using purified recombinant RET proteins, Hydrochloride, read-out: IC50 for RET) was 0.3 µM and 0.307 µM; in [4] (setting [20]), 0.3 µM. In assay [4] (purified recombinant RET, pY905 Western blot), the RET autokinase activity entry was “significantly reduced RET autokinase activity”. Moreover, the “cell proliferation (MTT)” value in assay [5] and in assay [19] was “caused decreased cell proliferation” throughout. The tumour growth entry in assay [6] is “caused slowed and reduced tumour growth”; in assay [7], “no statistical difference between SW-01 and gemcitabine treatment groups”. The RET autophosphorylation entry is listed as “significantly inhibited RET autophosphorylation” in [8] (10 μM for 2 hours, HEK293 cells expressing activated wildtype RET, Hydrochloride); “significant RET inhibition” in assay [8] (10 μM for 2 hours, HEK293 cells expressing activated wildtype RET, listed as NSC78206, Hydrochloride); “blocked or dramatically reduced” in [8] (setting [21]). Also, the 50% effective concentration (EC50) in [8] (EC50, cell based assay) worked out at 1 µM. Also, the “expression levels of RET” value in assay [8] (pan RET antibody, HEK293 cells) is given as “did not affect expression levels of RET”. Also, the “RET-mediated cell proliferation (MTT)” value in [9] is “reduces RET-mediated cell proliferation”. In addition, the “cell migration (wound closure)” value in assay [10] is on record as “cell migration was inhibited”. For the same compound, in assay [11], the “SW-01 Inhibition (10 μM)” value was “++”. Further, the “RET phosphorylation (pRET/RET)” value in [13] and in assay [15] was “inhibited by SW-01 in a concentration dependent fashion” in each case. The cell morphology entry in [14] was “exhibited induced morphological changes”. Also, in assay [18], the “RET-mediated colony formation in soft agar” value is “inhibits RET-mediated colony formation”.
Consider `CNCCC=C1c2ccccc2CCc2ccccc21.Cl` [SW-02, Nortriptyline Hydrochloride], for which the IC50 in assay [4] (purified protein assay, Hydrochloride, read-out: IC50) was determined as 5 µM. In [8] (EC50, cell based assay), this compound had an EC50 of more than 20 µM. For the same compound, in assay [8] (varying concentrations, 2 hours, HEK293 cells expressing RET, Hydrochloride), the RET autophosphorylation entry is given as “inhibited RET activity; also recorded: decreased RET activity”.
On to `C[N+](C)([O-])CCC=C1c2ccccc2CCc2ccccc21.Cl` [SW-03, 3-(10,11-Dihydro-5H-dibenzo[a,d]cyclohepten-5-ylidene)-N,N-dimethyl-1-propanamine N-oxide hydrochloride], for which the 50% inhibitory concentration (IC50) in assay [4] (setting [20]) is 10 µM. In assay [8], this compound came in with an EC50 of more than 20 µM. Also, the RET autophosphorylation result in [8] (setting [21]) is reported as “did not affect RET autophosphorylation”.
For `CNCCC=C1c2ccccc2CCc2ccccc21` [SW-04, Nortriptyline], the IC50 in [4] (setting [20]) was 1.5 µM. In addition, the midpoint of the response in assay [8] (EC50, cell based assay), the EC50, lay at 10 µM. The RET autophosphorylation entry in [8] (setting [21]) was “did not affect RET autophosphorylation”.
`CN(C)CCC=C1c2ccccc2CCc2ccccc21` [SW-05, Amitriptyline]: the IC50 in [4] (setting [20]) worked out at 1 µM. This compound also came in with an EC50 in assay [8] of 5 µM. Besides, in [8] (setting [21]), the RET autophosphorylation result is “inhibited RET activity; also recorded: decreased RET activity”.
Take `CN(CCCN1c2ccccc2CCc2ccccc21)CC(=O)c1ccc(Cl)cc1` [SW-06, Lofepramine]: the IC50 in assay [4] (setting [20]) was more than 20 µM. The EC50 in [8] (setting [22]) was more than 20 µM.
With `NCC1c2ccccc2CCc2ccccc21` [SW-08, 10,11-Dihydro-5H-dibenzo[a,d]cycloheptene-5-methanamine], the IC50 in [4] (setting [20]) stood at 5 µM. The compound also gave an EC50 in assay [8] of 20 µM.
As to `CN(C)CCNC1c2ccccc2-c2ccccc21` [SW-09, N′-Fluoren-9-yl-N,N-dimethyl-ethylenediamine dihydrochloride], in assay [4] (setting [20]), the IC50 is more than 20 µM. For the same compound, the EC50 in [8] (setting [22]) was more than 20 µM.
Turning to `NCCCC1(CCCN)c2ccccc2-c2ccccc21` [SW-10, 9,9-Bis(3-aminopropyl)-fluorine], the IC50 in assay [4] (setting [20]) is more than 20 µM. Also, the EC50 in assay [8] (setting [22]) is more than 20 µM.
For `CN(C)CCCC1(O)c2ccccc2C=Cc2ccccc21` [SW-11, 5-(3-Dimethylamino-propyl)-5H-dibenzo[a,d]cyclohepten-5-ol], the half-inhibitory concentration (IC50) in assay [4] (setting [20]) is more than 10 µM. Also, the concentration giving a half-maximal response (EC50) in [8] (setting [22]) is more than 20 µM.
Consider `CCN(CC)CCCOC(=O)CC1c2ccccc2C=Cc2ccccc21` [SW-12, (5H-Dibenzo[a,d]cyclohepten-5-yl)-acetic acid 3-diethylamino-propyl ester], for which the IC50 in assay [4] (setting [20]) worked out at 4 µM. The EC50 in [8] is more than 20 µM.
For the compound `CN(C)CCOC1c2ccccc2C=Cc2ccccc21` [SW-13, [2-(5H-Dibenzo[a,d]cyclohepten-5-yloxy)-ethyl]-dimethyl-amine], the IC50 in assay [4] (setting [20]) was 2.5 µM. Also, the EC50 in [8] (setting [22]) was 7 µM.
In the case of `CN(C)CCC=C1c2ccccc2C(C)(C)c2ccccc21` [SW-14, Melitracin], the IC50 in assay [4] (setting [20]) was more than 20 µM. Besides, the 50% effective concentration (EC50) in assay [8] (setting [22]) was more than 20 µM.
Compound `CNCCC=C1c2ccccc2C=Cc2ccccc21` [SW-15, Norcyclo- benzaprine (NCBA)] had an EC50 in assay [8] of 1 µM. For the same compound, the RET autophosphorylation result in [8] (setting [21]) is on record as “inhibited RET”.
Regarding `Nc1ccn([C@@H]2O[C@H](CO)[C@@H](O)C2(F)F)c(=O)n1` [gemcitabine, reference compound], the tumour growth entry in assay [7] was “no statistical difference between SW-01 and gemcitabine treatment groups”.

Broadly, the IC50 is the point on the concentration scale where inhibition reaches its midpoint. As a reminder, the EC50 is the concentration that produces a half-maximal response.

For the origin of these results see US8629135B2, “Pharmaceutical compositions comprising RET inhibitors and methods for the treatment of cancer” (Queen's University at Kingston, priority 2008, dated 2014).
